Measured values from BindingDB's records for patent US10106535 (Chdi Foundation, 2018).

Target: Histone deacetylase 4 (Homo sapiens, UniProt P56524)
Assay: Biochemical HDAC-4 Assay
Experimental: 5 μl of each solution of 1:20 diluted compound from above is transferred to a clear bottomed, black, 384-well assay plate using the Bravo or the Janus (384-well MDT head from Perkin Elmer). Using a 16-channel Matrix multi-channel pipette, 35 μl of the working solution of HDAC4 catalytic domain enzyme (0.2 μg/ml in assay buffer) is transferred to the assay plate. The assay is then started by adding 10 μl of 5× (50 μM) substrate to the assay plates using either the Bravo, Janus or 16-channel Matrix multi-channel pipette. The assay plate is then shaken for two minutes on an orbital shaker at 900 rpm (rotations per minute). Next the plate is incubated for 15 minutes at 37° C. The reaction is stopped by adding 25 μl of 3× (30 μM) developer/stop solution to the assay plates using either the Bravo, Janus or a 16-channel Matrix multi-channel pipette. Assay plates are then shaken for 5 minutes on an orbital shaker at 1200 rpm. Next, the assay plates are incubated at 37° C. for 1 hour in a tissue culture incubator. Finally, the fluorescence is measured (Excitation: 355 nm, Emission: 460 nm) using PerkinElmer EnVision in top read mode.

Sequence of Histone deacetylase 4 (P56524 whole entry): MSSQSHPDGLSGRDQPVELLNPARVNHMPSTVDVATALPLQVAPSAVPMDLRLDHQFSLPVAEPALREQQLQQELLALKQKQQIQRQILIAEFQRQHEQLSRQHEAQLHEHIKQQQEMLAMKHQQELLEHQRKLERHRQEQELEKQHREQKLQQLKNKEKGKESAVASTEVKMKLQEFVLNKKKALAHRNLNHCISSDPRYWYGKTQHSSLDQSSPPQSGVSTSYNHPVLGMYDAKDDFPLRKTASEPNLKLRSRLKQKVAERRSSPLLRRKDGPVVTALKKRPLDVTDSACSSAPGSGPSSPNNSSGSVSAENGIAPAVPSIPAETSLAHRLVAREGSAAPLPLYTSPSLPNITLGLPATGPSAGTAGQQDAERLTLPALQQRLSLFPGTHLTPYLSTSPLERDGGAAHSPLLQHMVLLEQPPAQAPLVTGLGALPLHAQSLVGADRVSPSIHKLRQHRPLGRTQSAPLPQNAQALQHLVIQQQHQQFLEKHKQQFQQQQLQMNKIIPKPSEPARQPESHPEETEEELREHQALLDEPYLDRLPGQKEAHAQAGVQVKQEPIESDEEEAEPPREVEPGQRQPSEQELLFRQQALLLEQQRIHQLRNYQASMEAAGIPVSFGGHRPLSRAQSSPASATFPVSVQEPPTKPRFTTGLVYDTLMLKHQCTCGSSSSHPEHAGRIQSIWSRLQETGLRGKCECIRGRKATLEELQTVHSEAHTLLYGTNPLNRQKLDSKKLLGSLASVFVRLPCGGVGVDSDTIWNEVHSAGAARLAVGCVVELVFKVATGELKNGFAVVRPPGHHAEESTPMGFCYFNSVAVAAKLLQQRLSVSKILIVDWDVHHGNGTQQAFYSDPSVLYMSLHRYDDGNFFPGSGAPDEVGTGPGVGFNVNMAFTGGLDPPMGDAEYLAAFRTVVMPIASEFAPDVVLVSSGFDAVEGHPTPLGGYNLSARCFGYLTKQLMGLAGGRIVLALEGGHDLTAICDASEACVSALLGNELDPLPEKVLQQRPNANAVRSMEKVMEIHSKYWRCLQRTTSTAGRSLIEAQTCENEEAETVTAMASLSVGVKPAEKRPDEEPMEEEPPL

- IC50: 12.3 µM
SMILES: O=C(NO)C1C=CCC1c1ccccc1 (stereo unspecified) [US10106535, Example 30]
